In the assay the target is T1, USP25 (USP25-His6, Boston Biochem E-546) (Homo sapiens, UniProt Q9UHP3).
T1 construct: His6; purchased Boston Biochem E-546
T1 sequence (Q9UHP3 1-1055): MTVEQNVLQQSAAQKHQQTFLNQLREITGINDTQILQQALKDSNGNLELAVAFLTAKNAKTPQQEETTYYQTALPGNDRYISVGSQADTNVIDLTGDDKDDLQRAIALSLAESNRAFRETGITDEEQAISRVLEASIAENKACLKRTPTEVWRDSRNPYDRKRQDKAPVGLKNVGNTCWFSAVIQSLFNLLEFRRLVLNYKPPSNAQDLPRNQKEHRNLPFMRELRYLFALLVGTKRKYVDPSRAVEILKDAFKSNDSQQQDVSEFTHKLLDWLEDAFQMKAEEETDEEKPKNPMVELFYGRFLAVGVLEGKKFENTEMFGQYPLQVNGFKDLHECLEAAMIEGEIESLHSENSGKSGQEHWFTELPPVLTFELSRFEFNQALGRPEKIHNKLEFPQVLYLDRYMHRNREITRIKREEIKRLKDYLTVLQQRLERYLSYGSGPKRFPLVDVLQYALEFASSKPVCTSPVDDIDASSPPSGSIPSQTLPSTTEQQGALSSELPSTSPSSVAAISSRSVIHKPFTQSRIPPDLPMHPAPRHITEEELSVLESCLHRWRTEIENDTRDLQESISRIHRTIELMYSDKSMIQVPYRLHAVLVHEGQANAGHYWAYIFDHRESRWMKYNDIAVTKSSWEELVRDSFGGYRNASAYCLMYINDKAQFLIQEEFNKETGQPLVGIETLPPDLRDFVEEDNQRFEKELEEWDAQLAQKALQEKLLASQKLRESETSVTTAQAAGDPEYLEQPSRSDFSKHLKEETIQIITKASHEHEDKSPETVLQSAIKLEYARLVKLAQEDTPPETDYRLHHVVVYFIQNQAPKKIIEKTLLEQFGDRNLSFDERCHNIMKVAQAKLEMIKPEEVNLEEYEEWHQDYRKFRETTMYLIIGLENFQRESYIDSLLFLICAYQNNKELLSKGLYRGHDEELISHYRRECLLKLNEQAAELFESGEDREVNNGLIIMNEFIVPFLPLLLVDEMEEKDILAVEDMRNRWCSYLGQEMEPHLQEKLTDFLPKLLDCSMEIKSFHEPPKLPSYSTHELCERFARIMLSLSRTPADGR
The assay can be described thus: Ubiquitin-Rhodamine 110 Assay for USP25 Activity, Example A-2. To be noted: Ubiquitin-Rhodamine 110 assay, Example A-2; read-out: USP25 A-2 IC50 range. It is filed as biochemical. The procedure, abridged: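 Read-out: Rh110 fluorescence (ex 485, em 535 nm) after 45 min RT turnover of 25 nM Ub-Rh110 by 75 pM USP25-His6, quenched with 10 mM citric acid. Compounds at 25 μM–1.3 nM, preincubated 30 min with enzyme. IC50 from 4-parameter logistic fit.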

The structures appear in SMILES notation.

By IC50 is commonly meant the midpoint of a concentration-inhibition curve. For the compound `Cc1ccc2c(N)c(C(=O)N[C@H]3COc4cc(N5C[C@H](N)CC[C@H]5C(F)(F)F)ccc4C3)sc2n1` [Example 247, 3-amino-N-[(3R)-7-[(2S,5R)-5-amino-2-(trifluoromethyl)piperidin-1-yl]-3,4-dihydro-2H-1-benzopyran-3-yl]-6-methylthieno[2,3-b]pyridine-2-carboxamide], the IC50 lay within 50 to 200 nM.

As for `Cc1ccc2c(N)c(C(=O)N[C@H]3COc4cc(N5CC6CCC[C@@]6(N)C5)ccc4C3)sc2n1` (stereo partly drawn) [Example 248, N-[(3R)-7-[(3aS)-3a-amino-octahydrocyclopenta[c]pyrrol-2-yl]-3,4-dihydro-2H-1-benzopyran-3-yl]-3-amino-6-methylthieno[2,3-b]pyridine-2-carboxamide], the IC50 lay in the range of 200 to 2000 nM.

For the compound `Cc1ccc2c(N)c(C(=O)N[C@H]3COc4cc(N5CC6CCC[C@]6(N)C5)ccc4C3)sc2n1` (stereo partly drawn) [Example 249, N-[(3R)-7-[(3aR)-3a-amino-octahydrocyclopenta[c]pyrrol-2-yl]-3,4-dihydro-2H-1-benzopyran-3-yl]-3-amino-6-methylthieno[2,3-b]pyridine-2-carboxamide], the 50% inhibitory concentration (IC50) lay within 50 to 200 nM.

Take `COC[C@@H]1CN(c2cc(F)c3c(c2)OC[C@H](NC(=O)c2sc4nc(C)ccc4c2N)C3)C[C@@H]1N` [Example 250, 3-amino-N-[(3R)-7-[(3R,4R)-3-amino-4-(methoxymethyl)pyrrolidin-1-yl]-5-fluoro-3,4-dihydro-2H-1-benzopyran-3-yl]-6-methylthieno[2,3-b]pyridine-2-carboxamide]: the IC50 is 200 to 2000 nM.

Consider `COC[C@H]1CN(c2cc(F)c3c(c2)OC[C@H](NC(=O)c2sc4nc(C)ccc4c2N)C3)C[C@H]1N` [Example 251, 3-amino-N-[(3R)-7-[(3S,4S)-3-amino-4-(methoxymethyl)pyrrolidin-1-yl]-5-fluoro-3,4-dihydro-2H-1-benzopyran-3-yl]-6-methylthieno[2,3-b]pyridine-2-carboxamide], for which the IC50 was in the range of 50 to 200 nM.

Take `COC[C@@H]1CN(c2ccc3c(c2)CC[C@H](NC(=O)c2sc4nc(C)ccc4c2N)C3)C[C@@H]1N` [Example 252, 3-amino-N-[(2S)-6-[(3R,4R)-3-amino-4-(methoxymethyl)pyrrolidin-1-yl]-1,2,3,4-tetrahydronaphthalen-2-yl]-6-methylthieno[2,3-b]pyridine-2-carboxamide]: the half-inhibitory concentration (IC50) was in the range of 200 to 2000 nM.

Consider `COC[C@H]1CN(c2ccc3c(c2)CC[C@H](NC(=O)c2sc4nc(C)ccc4c2N)C3)C[C@H]1N` [Example 253, 3-amino-N-[(2S)-6-[(3S,4S)-3-amino-4-(methoxymethyl)pyrrolidin-1-yl]-1,2,3,4-tetrahydronaphthalen-2-yl]-6-methylthieno[2,3-b]pyridine-2-carboxamide], for which the IC50 fell in the range of 200 to 2000 nM.

For the compound `CCO[C@@H]1CN(c2ccc3c(n2)CC[C@H](NC(=O)c2sc4nc(C)ccc4c2N)C3)C[C@@H]1N` [Example 254, 3-amino-N-[(6S)-2-[(3S,4R)-3-amino-4-ethoxypyrrolidin-1-yl]-5,6,7,8-tetrahydroquinolin-6-yl]-6-methylthieno[2,3-b]pyridine-2-carboxamide], the IC50 was above 2000 nM.

Regarding `CCO[C@H]1CN(c2ccc3c(n2)CC[C@H](NC(=O)c2sc4nc(C)ccc4c2N)C3)C[C@H]1N` [Example 255, 3-amino-N-[(6S)-2-[(3R,4S)-3-amino-4-ethoxypyrrolidin-1-yl]-5,6,7,8-tetrahydroquinolin-6-yl]-6-methylthieno[2,3-b]pyridine-2-carboxamide], the concentration for half-maximal inhibition (IC50) was above 2000 nM.

Take `Cc1ccc2c(N)c(C(=O)N[C@H]3COc4cc(N5C[C@H](N)C(F)(F)C5)ccc4C3)sc2n1` [Example 256, 3-amino-N-[(3R)-7-[(4S)-4-amino-3,3-difluoropyrrolidin-1-yl]-3,4-dihydro-2H-1-benzopyran-3-yl]-6-methylthieno[2,3-b]pyridine-2-carboxamide]: the concentration for half-maximal inhibition (IC50) is 200 to 2000 nM.

For `Cc1ccc2c(N)c(C(=O)N[C@H]3COc4cc(N5C[C@@H](N)C(F)(F)C5)ccc4C3)sc2n1` [Example 257, 3-amino-N-[(3R)-7-[(4R)-4-amino-3,3-difluoropyrrolidin-1-yl]-3,4-dihydro-2H-1-benzopyran-3-yl]-6-methylthieno[2,3-b]pyridine-2-carboxamide], the half-inhibitory concentration (IC50) was in the range of 50 to 200 nM.

In the case of `Cc1ccc2c(N)c(C(=O)N[C@H]3COc4cc(N5C[C@H](N)C6(COC6)C5)ccc4C3)sc2n1` [Example 258, 3-amino-N-[(3R)-7-[(8R)-8-amino-2-oxa-6-azaspiro[3.4]octan-6-yl]-3,4-dihydro-2H-1-benzopyran-3-yl]-6-methylthieno[2,3-b]pyridine-2-carboxamide], the half-maximal inhibitory concentration (IC50) is 200 to 2000 nM.

Turning to `Cc1ccc2c(N)c(C(=O)N[C@H]3COc4cc(N5C[C@@H](N)C6(COC6)C5)ccc4C3)sc2n1` [Example 259, 3-amino-N-[(3R)-7-[(8S)-8-amino-2-oxa-6-azaspiro[3.4]octan-6-yl]-3,4-dihydro-2H-1-benzopyran-3-yl]-6-methylthieno[2,3-b]pyridine-2-carboxamide], the half-inhibitory concentration (IC50) was in the range of 200 to 2000 nM.

Consider `COC[C@@H]1C[C@@H](N)CN1c1ccc2c(c1)OC[C@H](NC(=O)c1sc3nc(C)ccc3c1N)C2` [Example 260, 3-amino-N-[(3R)-7-[(25,4R)-4-amino-2-(methoxymethyl)pyrrolidin-1-yl]-3,4-dihydro-2H-1-benzopyran-3-yl]-6-methylthieno[2,3-b]pyridine-2-carboxamide], for which the IC50 fell in the range of 1 to 50 nM.

Values taken from US11524966B1 (Valo Early Discovery, Inc., priority 2017, dated 2022).
